Test results from patent US20240254119A1 (THIRD HARMONIC BIO, INC., priority 2022, published 2024).

Experiments:
wtKIT [1] = molecular target: T1, wtKIT (Homo sapiens, UniProt P10721); experiment: Caliper biochemical assay, wtKIT; conditions: Table 6, read-out: KIT Biochemical IC50 avg
T1 construct: 1888289AM in the reaction mixtures
Summary of the method: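 Mobility-shift read-out: after EDTA stop, fluorescent peptide substrate and product resolved electrophoretically on LabChip 3000. Reaction ran 3 h at 25° C with 400 μM ATP, Mn^2+ cofactor, 5.0 nM wtKIT, 1 μM FAM-peptide, pH 7.5 HEPES buffer; no-enzyme wells defined full inhibition.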

CSF-1R = molecular target: T2, CSF-1R (Homo sapiens, UniProt P07333); experiment: Caliper biochemical assay, CSF-1R; conditions: Table 6
T2 construct: purchased Invitrogen PV3249 (lot 662393N)
T2 sequence (P07333 20-972): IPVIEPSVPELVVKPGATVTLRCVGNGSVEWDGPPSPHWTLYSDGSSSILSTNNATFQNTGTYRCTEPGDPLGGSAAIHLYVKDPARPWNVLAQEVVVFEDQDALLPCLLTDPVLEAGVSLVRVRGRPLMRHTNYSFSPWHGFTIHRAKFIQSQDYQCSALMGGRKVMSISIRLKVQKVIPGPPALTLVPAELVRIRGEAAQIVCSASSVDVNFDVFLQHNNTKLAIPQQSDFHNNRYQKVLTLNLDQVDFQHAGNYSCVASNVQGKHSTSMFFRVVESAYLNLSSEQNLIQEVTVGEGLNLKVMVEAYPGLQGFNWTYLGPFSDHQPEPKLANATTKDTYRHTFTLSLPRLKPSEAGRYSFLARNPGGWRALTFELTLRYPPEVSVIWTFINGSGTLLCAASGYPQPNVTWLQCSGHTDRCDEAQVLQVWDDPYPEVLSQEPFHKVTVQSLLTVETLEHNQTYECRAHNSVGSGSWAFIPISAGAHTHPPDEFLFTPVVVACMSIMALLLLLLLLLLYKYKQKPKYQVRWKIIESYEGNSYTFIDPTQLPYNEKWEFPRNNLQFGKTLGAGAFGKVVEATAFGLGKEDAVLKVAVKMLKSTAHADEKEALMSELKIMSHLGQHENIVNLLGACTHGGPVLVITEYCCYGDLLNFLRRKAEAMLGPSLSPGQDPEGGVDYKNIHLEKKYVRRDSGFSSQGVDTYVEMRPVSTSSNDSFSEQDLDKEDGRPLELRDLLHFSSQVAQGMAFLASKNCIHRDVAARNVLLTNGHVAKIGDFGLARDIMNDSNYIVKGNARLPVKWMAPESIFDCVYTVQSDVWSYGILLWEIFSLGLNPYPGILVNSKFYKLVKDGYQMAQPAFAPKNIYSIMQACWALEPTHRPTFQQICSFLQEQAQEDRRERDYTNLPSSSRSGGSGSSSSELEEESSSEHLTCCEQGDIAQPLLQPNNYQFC
Experimental: (§1) Enzyme, substrate, and cofactors (ATP and Mn^2+) are combined in a well of a microtiter plate and incubated for 3 hours at 25° C. At the end of the incubation, the reaction is quenched by the addition of an EDTA-containing buffer. Substrate and product are separated electrophoretically using the microfluidic-based LabChip 3000 Drug Discovery System from Caliper Life Sciences* and quantitated by fluorescence intensity.
(§2) The substrate used in the CSF-1R and PDGFRα assay is FAM-[…]-CONH2 (FAM is carboxyfluorescein). Peptide should be >95% purity. The substrate for the KIT assay is FAM-[…]-NH2.
(§3) • 1. To a well of a 384-well plate add 5 μL of 2× enzyme buffer (or control) • 2. Add 100 nL of 100× compound. • 3. Add 5 μL of 2× substrate buffer. • 4. Incubate plate at 25° C. for 3 hours. • 5. Add 10 uL of […]. • 6. Read plate LabChip 3000 Drug Discovery System
(§4) • 3 hours at 25° C. where 100% Inhibitor: No enzyme.

PDGFRα = molecular target: T3, PDGFRα (Homo sapiens, UniProt P16234); experiment: Caliper biochemical assay, PDGFRα; conditions: Table 6
T3 construct: purchased Millipore 14-467 (lot 26321_ACTI)
T3 sequence (P16234 24-1089): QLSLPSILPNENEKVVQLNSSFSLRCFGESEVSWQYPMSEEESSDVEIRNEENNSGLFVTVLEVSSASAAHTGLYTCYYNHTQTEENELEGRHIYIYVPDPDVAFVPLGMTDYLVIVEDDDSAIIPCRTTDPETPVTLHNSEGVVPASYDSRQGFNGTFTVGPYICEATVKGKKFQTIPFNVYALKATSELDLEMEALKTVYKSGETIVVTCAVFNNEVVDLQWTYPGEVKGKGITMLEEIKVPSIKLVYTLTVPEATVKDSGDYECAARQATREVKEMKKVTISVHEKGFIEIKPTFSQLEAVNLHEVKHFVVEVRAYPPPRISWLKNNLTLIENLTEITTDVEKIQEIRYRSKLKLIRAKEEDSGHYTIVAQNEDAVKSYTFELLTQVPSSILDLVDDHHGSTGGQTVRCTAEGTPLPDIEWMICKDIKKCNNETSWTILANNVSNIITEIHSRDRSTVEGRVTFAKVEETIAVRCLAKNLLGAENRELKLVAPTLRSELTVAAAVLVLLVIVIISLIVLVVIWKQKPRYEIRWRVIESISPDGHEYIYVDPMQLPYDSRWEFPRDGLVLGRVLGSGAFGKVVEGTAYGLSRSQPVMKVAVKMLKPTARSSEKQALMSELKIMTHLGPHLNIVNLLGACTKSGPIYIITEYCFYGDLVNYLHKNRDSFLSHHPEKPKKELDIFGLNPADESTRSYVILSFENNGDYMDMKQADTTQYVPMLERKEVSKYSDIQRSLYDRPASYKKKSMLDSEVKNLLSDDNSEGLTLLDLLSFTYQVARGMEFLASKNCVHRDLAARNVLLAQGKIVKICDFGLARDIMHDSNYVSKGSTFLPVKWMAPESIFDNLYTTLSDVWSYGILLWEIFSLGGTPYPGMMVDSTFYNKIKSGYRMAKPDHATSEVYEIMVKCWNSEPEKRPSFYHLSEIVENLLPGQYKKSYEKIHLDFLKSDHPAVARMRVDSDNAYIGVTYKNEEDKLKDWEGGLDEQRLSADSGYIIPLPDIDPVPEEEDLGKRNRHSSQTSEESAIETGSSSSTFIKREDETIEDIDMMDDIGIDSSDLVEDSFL
Experimental: as §1, §2, §3, §4

Kinetic solubility assay = type: physicochemical; conditions: kinetic solubility, 50 mM PB (pH 7.4), shaken 24 hours at RT
Summary of the method: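 Concentration in the filtrate was determined by UPLC-UV or HPLC-UV with a standard curve. Before that, compound (10 mM DMSO stock) in 50 mM PB at pH 7.4 was agitated 24 h at room temperature, then PTFE-filtered with centrifugation.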

wtKIT [2] = molecular target: T1, wtKIT; experiment: HTRF biochemical assay, wtKIT (phosphorylation of a peptide substrate); conditions: Table 4
Summary of the method: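 HTRF read-out of FAM-peptide (1 µM) phosphorylation after anti-phosphotyrosine antibody addition and EDTA quench. Reaction: 5.0 nM wtKIT, 400 µM ATP, 10 mM Mn2+, HEPES pH 7.5, 1% DMSO, 3 h, 25 °C; optional enzyme-compound preincubation; enzyme level set for 10-20% conversion.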

T1 sequence (P10721 26-976): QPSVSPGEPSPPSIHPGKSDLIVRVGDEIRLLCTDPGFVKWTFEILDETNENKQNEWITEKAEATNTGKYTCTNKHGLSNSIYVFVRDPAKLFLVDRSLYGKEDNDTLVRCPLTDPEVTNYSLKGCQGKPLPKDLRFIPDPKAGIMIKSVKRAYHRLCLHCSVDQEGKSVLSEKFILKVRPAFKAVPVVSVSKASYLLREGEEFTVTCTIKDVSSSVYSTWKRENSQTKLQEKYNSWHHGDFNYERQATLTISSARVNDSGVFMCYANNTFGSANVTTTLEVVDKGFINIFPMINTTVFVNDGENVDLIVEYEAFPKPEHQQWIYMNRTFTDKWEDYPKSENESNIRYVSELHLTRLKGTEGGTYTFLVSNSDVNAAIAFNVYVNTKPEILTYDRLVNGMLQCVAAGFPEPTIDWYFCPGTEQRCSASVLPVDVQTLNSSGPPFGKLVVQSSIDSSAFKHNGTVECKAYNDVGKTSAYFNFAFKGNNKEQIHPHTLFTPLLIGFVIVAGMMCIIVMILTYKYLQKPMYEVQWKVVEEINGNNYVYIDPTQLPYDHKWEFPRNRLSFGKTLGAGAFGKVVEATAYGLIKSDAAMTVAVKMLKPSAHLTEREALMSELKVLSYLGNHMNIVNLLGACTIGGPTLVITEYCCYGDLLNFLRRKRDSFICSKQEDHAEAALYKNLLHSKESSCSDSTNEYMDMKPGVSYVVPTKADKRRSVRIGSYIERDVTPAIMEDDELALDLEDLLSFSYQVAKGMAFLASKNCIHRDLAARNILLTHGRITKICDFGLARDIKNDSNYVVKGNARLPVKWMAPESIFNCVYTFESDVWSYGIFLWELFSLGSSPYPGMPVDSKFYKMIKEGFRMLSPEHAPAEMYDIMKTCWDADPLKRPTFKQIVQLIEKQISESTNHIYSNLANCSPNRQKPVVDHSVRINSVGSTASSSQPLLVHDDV

Row | SMILES | IC50 (wtKIT [1]) [µM] | IC50 (CSF-1R) [µM] | IC50 (PDGFRα) [µM] | Solubility (μM) (Kinetic solubility assay) | IC50 (wtKIT [2]) [µM]
1 | O=C(Nc1cc(-c2noc([C@H]3CC(F)(F)CN3)n2)ccc1Cl)c1cnc2ccccn12 [Compound I-192] | ≤ 0.05 | 0.05 to 0.5 | 0.5 to 5 | **** (a solubility less than or equal to 2 μM) | 
2 | COC(=O)CS(=O)(=O)N1CC(c2nc(-c3ccc(C)c(NC(=O)c4cnc5ccccn45)c3)no2)C1 [Compound I-236] | ≤ 0.05 | 0.5 to 5 | 5 to 30 | *** (a solubility greater than 2 μM and less than or equal to 10 μM) | 0.05 to 0.5
3 | Cc1ccc(-c2noc([C@@H]3CCN3S(=O)(=O)c3ccccc3)n2)cc1NC(=O)c1cnc2ccccn12 [Compound I-186] | 0.05 to 0.5 | 0.05 to 0.5 | 0.5 to 5 | *** (a solubility greater than 2 μM and less than or equal to 10 μM) | 
4 | CCS(=O)(=O)N1CC[C@@H]1c1nc(-c2ccc(C)c(NC(=O)c3cnc4ccccn34)c2)no1 [Compound I-234] | ≤ 0.05 | ≤ 0.05 | 0.05 to 0.5 | ** (a solubility greater than 10 μM and less than or equal to 50 μM) | 0.05 to 0.5
5 | Cc1ccc(-c2noc([C@H]3CCN3C3CCC3)n2)cc1NC(=O)c1cnc2ccccn12 [Compound I-193] | ≤ 0.05 | ≤ 0.05 | 0.05 to 0.5 | **** (a solubility less than or equal to 2 μM) | 
6 | Cc1ccc(-c2noc([C@H](C)NS(=O)(=O)c3cnn(C)c3)n2)cc1NC(=O)c1cnc2ccccn12 (racemic) [Compound I-181] | ≤ 0.05 | ≤ 0.05 | 0.5 to 5 | * (a solubility greater than 50 μM) | 
7 | Cc1ccc(-c2noc([C@H]3C[C@@H]3F)n2)cc1NC(=O)c1cnc2ccc(N3CCC3)cn12 [Compound I-291] | ≤ 0.05 | ≤ 0.05 | 0.05 to 0.5 | *** (a solubility greater than 2 μM and less than or equal to 10 μM) | 
8 | Cc1ccc(-c2noc(C34CCC(CC3)CC4)n2)cc1NC(=O)c1cnc2ccccn12 [Compound I-311] | 0.05 to 0.5 | ≤ 0.05 | ≤ 0.05 | **** (a solubility less than or equal to 2 μM) | 
9 | Cc1ccc(-c2noc(C3CCN3CCOC(F)(F)F)n2)cc1NC(=O)c1cnc2ccccn12 (racemic) [Compound I-168] | ≤ 0.05 | 0.05 to 0.5 | 0.5 to 5 | ** (a solubility greater than 10 μM and less than or equal to 50 μM) | 
10 | Cc1ccc(Nc2ccn3c(C(=O)Nc4cc(-c5noc([C@H]6C[C@@H]6F)n5)ccc4C)cnc3c2)cc1 [Compound I-302] | ≤ 0.05 | ≤ 0.05 | ≤ 0.05 | **** (a solubility less than or equal to 2 μM) | 
11 | Cc1ccc(-c2noc(CC(O)C(F)(F)F)n2)cc1NC(=O)c1cnc2ccccn12 (racemic) [Compound I-183] | 0.05 to 0.5 | 0.05 to 0.5 | 5 to 30 | **** (a solubility less than or equal to 2 μM) | 
12 | Cc1nc(-c2ccc(C)c(NC(=O)c3cnc4cc(COCC(F)(F)F)ccn34)c2)no1 [Compound I-133] | ≤ 0.05 | 0.5 to 5 | 5 to 30 | **** (a solubility less than or equal to 2 μM) | 
